For series [1], the system named is oxaliplatin-induced neuropathic pain. The experiment in a line: Oxaliplatin-induced neuropathic pain (mechano-allodynia, mechano-hyperalgesia). In kind it is in vivo, rats.
Series [2] concerns acute nociception (tail flick latency). The experiment in a line: Tail flick assay for acute nociception. Particulars: IB-MECA, MRS1898 0.5 μmol/kg i.p. at 30, 60, 120 minutes; morphine 35 μmol/kg s.c. positive control. It counts as in vivo, mice. The procedure: (§1) Tail flick and hot plate assay in mice for acute nociception. The tail flick test, which measures latency(s) of tail withdrawal from a noxious radiant heat source (Ugo Basile; model number 37360) was used to measure thermal nociceptive sensitivity in mice with baseline latencies of 3-5 seconds and a cut-off time of 15 seconds to prevent tissue injury. Tail flick latencies were taken before and at 30, 60 and 120 minutes after i.p. injection of IB-MECA, MRS1898 (0.5 μmol/kg) or its vehicle (0.1% DMSO in saline). For the hot plate test, nociceptive thresholds were determined as previously reported by our group by measuring latencies (in seconds) of mice placed in a transparent glass cylinder on a hot plate maintained at 52° C.. Responses indicative of nociception included intermittent lifting and/or licking of the hindpaws or escape behavior. Hot plate latencies were taken in mice from all groups before and after drug administration. A cut-off latency of 15 seconds was employed to prevent tissue damage.

Series [3] concerns SKBR3 breast cancer cells. The experiment in a line: MTT cell survival assay, SKBR3. It counts as cell-based, human. The procedure: Cells were cultured and assayed in DMEM (SKBR3; human breast cancer cells), L15 (SW480; human colon cancer cells) or RPMI […] (RPMI 8226; human multiple myeloma cells) supplemented with heat-denatured 10% FBS and penicillin/streptomycin at 37° C., 0% (SW480) or 5% CO2 (SKBR3 and RPMI 8226), 95% humidity. The antitumor activities of these agents were measured in cells (6.25×10^4 cells/well) cultured overnight in 24-well plates (SKBR3 and SW480; BD Biosciences) or 12 mm×7.5 mm culture tubes (RPMI 8226; BD Biosciences) in complete media. […] Two naïve control wells were included as a control for 100% survival. Cell survival was determined using a MTT (3-(4,5-dimethylthiazol-2-yl)-2,5-diphenyltetrazolium bromide) assay adapted from a previously described assay. Cells were incubated with MTT (500 μg/ml) for 75 minutes at 37° C., 0% or 5% CO2, 95% humidity, removing the media and dissolving the tetrazolium crystals in isopropanol. […] The antitumor effects of IB-MECA alone were determined as % Survivability=(A560-570 nm of chemotherapeutic vehicle+IB-MECA)/(mean A560-570 nm of the naïve control wells)×100. The LD50 of each chemotherapeutic agent+IB-MECA or its vehicle was calculated using three-parameter non-linear analysis using % Survivability=(A560-570 nm of chemotherapeutic+IB-MECA or its vehicle)/(mean A560-570 nm chemotherapeutic vehicle+vehicle of IB-MECA)×100. The top and bottom plateaus were constrained using GraphPad Prism v5.03 (GraphPad Software, Inc.).
In general terms: Formazan colour is commonly taken as a measure of viable cells.

Series [4] relates to motor function (Rotarod latency). Put plainly: Rotarod test. It counts as in vivo, mice. The conditions noted are these: 0.5 μmol/kg i.p., 30, 60, 120 minutes. The procedure:
Rotarod test in mice: Mice were trained before experimentation for their ability to remain for 60 seconds on a revolving Rotarod for mice apparatus (Ugo Basile; accelerating units increasing from 5 to 40 rpm in 60 sec). Mice were injected i.p. with IB-MECA, MRS1898 (0.5 μmol/kg) or vehicle (0.1% DMSO in saline) and then examined at 30, 60 and 120 minutes after administration for motor impairments on the Rotarod. The latency time to fall off the Rotarod was determined with a cut-off time of 120 seconds.
(In general: Falling from the rotarod earlier than controls is read as motor impairment.)

The test system of series [5] is paclitaxel-induced neuropathic pain. The experiment in a line: Paclitaxel-induced neuropathic pain (mechano-allodynia, mechano-hyperalgesia). It counts as in vivo, rats.
In series [6] the test system is acute nociception (hot plate latency). The experiment in a line: Hot plate assay for acute nociception. It counts as in vivo, mice. Particulars: 0.5 μmol/kg. The procedure: as §1
For series [7], the system named is bortezomib-induced neuropathic pain. The experiment in a line: Bortezomib-induced neuropathic pain (mechano-allodynia, mechano-hyperalgesia). It counts as in vivo, rats. The protocol: Bortezomib or vehicle (5% Tween 80, 5% ethanol) was injected i.p. in rats on five consecutive days (D0-D4; 0.2 mg/kg) for a final cumulative dose of 1 mg/kg (G. J. Bennett and W. H. Xiao, personal communication). Test substances or their vehicle were given i.p. (0.2 ml) 30 min before the chemotherapeutic agent or its vehicle on D0 (baseline) and then daily until D15 or D17. Behavioral responses (mechano-allodynia and mechano-hyperalgesia) were measured on D0 prior to the first i.p. injection of the chemotherapeutic agent and subsequently at various time points. If testing coincided with a day when rats received test substance, behavioral measurements were taken always before the injection of the test substance. Chemotherapeutic treatments result in bilateral allodynia and hyperalgesia without differences in left and right paw withdrawal threshold (PWT, grams) in any group at any time point, thus values from both paws were averaged.
Behavioral testing. […] The plantar aspect of hindpaws were probed three times with calibrated von Frey filaments (Stoelting, mice: 0.07-2.00 grams; rats: 0.407-26 grams) according to the “up-and-down” method. […] Mechanical threshold was assessed three times at each time point to yield a mean value, reported as PWT (grams). […] Mechano-hyperalgesia was assessed in rats by the Randall and Sellitto paw pressure test using an analgesiometer (Ugo Basile). […]

Regarding `CNC(=O)[C@H]1O[C@@H](n2cnc3c(NCc4cccc(I)c4)ncnc32)[C@H](O)[C@@H]1O` [IB-MECA, N^6-(3-iodobenzyl)-adenosine-5′-N-methyluronamide], in series [1] (0.02-0.2 μmol/kg/d D0-D17), the “effect on development of oxaliplatin-induced neuropathic pain” value is recorded as “attenuated dose-dependently”. Besides, the “neuropathic pain upon drug termination” value in series [1] (oxaliplatin model, through D25) was “did not emerge upon drug termination”. Besides, in series [1] (rats, daily D0-D17), the “D17 ED50, prevention of oxaliplatin-induced mechano-allodynia” value was determined as 0.05 µmol/kg/day and the “D17 ED50, prevention of oxaliplatin-induced mechano-hyperalgesia” value was 0.06 µmol/kg/day. In series [2], the “effect on tail flick latency” value is given as “lacked effect”. Also, in series [3] (IB-MECA 10 nM, human breast, colon and multiple myeloma cancer cells), the “effect on the antitumor effects of paclitaxel, oxaliplatin or bortezomib” value is “did not diminish”. Moreover, the “decrease in cell survival when used alone” value in series [3] (IB-MECA 10 nM, stated for the cell lines tested (SKBR3, SW480, RPMI 8226)) is given as < 20%. Also, in series [3] (doses above 10 nM, all three cell lines), the “effect of higher doses on the cell lines” value was “direct antitumor effects”. For the same compound, in series [4], the Rotarod deficits entry is “did not induce Rotarod deficits”. In series [5] (0.02-0.2 μmol/kg/d i.p. D0-D15), the “effect on paclitaxel-induced neuropathic pain” value is “dose-dependently attenuated”. In addition, the “effect on PWT when administered alone (vehicle groups)” value in series [5] (IB-MECA 0.2 μmol/kg/d in any of the chemotherapy models, MRS1523 5 μmol/kg/d) was “did not affect PWT”. Moreover, the “neuropathic pain after discontinuation of treatment on D15” value in series [5] (paclitaxel model, followed through D25) is recorded as “did not emerge through D25”. In addition, in series [5] (rats, daily i.p. D0-D15), the “D16 ED50, prevention of paclitaxel-induced mechano-allodynia” value came to 0.02 µmol/kg/day and the “D16 ED50, prevention of paclitaxel-induced mechano-hyperalgesia” value worked out at 0.03 µmol/kg/day. Further, in series [6], the “effect on the hot plate” value is listed as “had no effect”. For the same compound, the “effect on development of bortezomib-induced mechano-allodynia and mechano-hyperalgesia” value in series [7] (0.2 μmol/kg/d (not shown)) is given as “blocked the development”. In series [7] (bortezomib model), the “neuropathic pain after treatment was discontinued on D17” value is “did not emerge”.

These data come from US9132131B2, “Use of adenosine A3 receptor agonists for treatment of neuropathic pain” (Saint Louis University, priority 2011, dated 2015).
